Laboratory results taken from PMC12140300, “Development of Carbon‐11 Labeled Pyrimidine Derivatives as Novel Positron Emission Tomography (PET) Agents Enabling Brain Sigma‐1 Receptor Imaging” (Advanced Science, 2025).

Test system: σ1R
Test: NHP PET/MR imaging with kinetic modelling, baseline and self-blocking
Type: in vivo
Details: for VT, Logan graphical method [T* = 40 min] / VT, Two tissue compartment model [2TCM] / VT, One tissue compartment model [1TCM]: male NHP brain
Source text: Next, we conducted PET/MR imaging studies using [^11C]CNY‐01 in non‐human primates (NHP) to evaluate its safety and translational potential in large animals further. A 90‐minute dynamic PET scan with [^11C]CNY‐01 focusing on the head of a male rhesus monkey. We performed a full kinetic analysis with one‐ and two‐tissue compartment models (1TCM and 2TCM), as well as logan graphical analysis (LGA), using metabolite‐corrected arterial input function (AIF), similar to previous studies,^[ [44], [45] ^] to determine which model best suit kinetics of [^11C]CNY‐01. In most brain regions, 2TCM provided a better fit than 1TCM, as indicated by the Akaike information criterion (AIC) and model selection criterion (MSC) (Table 1). […] To test whether non‐parametric graphical approaches can be used for [^11C]CNY‐01, we performed LGA with an assumption of steady‐state time (T*) of 40 mins (Table 1). […] For voxel‐wise estimation of VT across the whole brain, we then used LGA (Figure 4A).
We also performed a self‐blocking scan for [^11C]CNY‐01, administering 0.5 mg kg^−1 of unlabeled CNY‐01 10 min before the radiotracer. The metabolism of the radiotracer in the blocking scan was similar to that of the baseline (Figure S6, Supporting Information). The radioactivity concentration was lower in arterial blood samples in the blocking scan compared to the baseline, while brain uptake was higher in the blocking scan (Figure S6, Supporting Information). […] The variation of the radiotracer plasma protein binding (fp) between baseline and blocking scan may explain our observation in a way similar to that of the previous study.^[ [46] ^] Nonetheless, due to this study's lack of fp data, the exact explanation for our observation remains to be determined further.
The PET/MR imaging protocol in non‐human primates (NHP) followed our previous work.^[ [55], [56] ^] A male rhesus macaque (8.55 kg) was anesthetized with an intramuscular injection of xylazine (0.5–2.0 mg kg^−1) and ketamine (10 mg kg^−1), followed by endotracheal intubation. V‐ and A‐lines were inserted, and anesthesia was maintained using isoflurane. [^11C] CNY‐01 was administered after antecubital catheterization, with an arterial line prepared for radiometabolite analysis. In the self‐blocking scan, the same animal (6.80 kg) was scanned with a 10‐min pre‐treatment of 0.5 mg kg^−1 unlabeled CNY‐01. PET/MR imaging data were acquired using a Siemens TIM‐Trio scanner (3T) equipped with a Siemens BrainPET insert module and an in‐house‐built 8‐channel head coil. The dynamic scan began, followed by administration of [^11C] CNY‐01 (5.1 mCi). The list mode data were reconstructed using the 3D ordinary Poisson expectation‐maximization algorithm (16 subsets and 6 iterations) with detector efficiency, decay, dead time, random coincidences, scatter, and attenuation corrections with gradually increasing time frams. All images were reconstructed into 153 slices with 256 × 256 pixels and 1.25‐mm isotropic voxel size. High‐resolution structural MRI scans were acquired by using a multi‐echo magnetization‐prepared rapid gradient echo (ME‐MPRAGE) sequence with parameters as follows: TR = 2400 ms; TE1/TE2/TE3/TE4 = 1.57/3.29/5.01/6.73 ms; inversion time = 1200 ms; flip angle = 9°; spatial resolution = 1 mm isotropic.
For macaque brain PET/MR imaging analysis, we applied the INIA19 Template^[ [57] ^] and NeuroMaps Atlas in accordance with our prior work.^[ [58] ^] In brief, reconstructed PET images were registered to the INIA19 Primate Brain Atlas^[ [57] ^] with the following processing steps^[ [59] ^]: The high‐resolution T1‐weighted MR image, co‐registered with the PET image, was first affine‐registered to the INIA19 atlas. By using the same transformation, dynamic PET data was registered to the atlas. A spatial smoothing with a 6‐mm FWHM Gaussian kernel was applied to PET images. Twenty ROIs determined in the INIA19 atlas were used to derive regional TACs. […]

[1] = ACC, 10-min pretreatment of unlabeled CNY-01 (0.5 mg kg^−1)
[2] = Amygdala, 10-min pretreatment of unlabeled CNY-01 (0.5 mg kg^−1)
[3] = CBL, 10-min pretreatment of unlabeled CNY-01 (0.5 mg kg^−1)
[4] = Caudate, 10-min pretreatment of unlabeled CNY-01 (0.5 mg kg^−1)
[5] = Globus-pallidus, 10-min pretreatment of unlabeled CNY-01 (0.5 mg kg^−1)
[6] = Hippocampus, 10-min pretreatment of unlabeled CNY-01 (0.5 mg kg^−1)
[7] = Hypothalamus, 10-min pretreatment of unlabeled CNY-01 (0.5 mg kg^−1)
[8] = Ifc, 10-min pretreatment of unlabeled CNY-01 (0.5 mg kg^−1)
[9] = Insula, 10-min pretreatment of unlabeled CNY-01 (0.5 mg kg^−1)
[10] = Midbrain, 10-min pretreatment of unlabeled CNY-01 (0.5 mg kg^−1)
[11] = Motor, 10-min pretreatment of unlabeled CNY-01 (0.5 mg kg^−1)

Cc1nc(-c2ccc(O[11CH3])cc2)nc(OCCCN2CCCCC2)c1Cl [[^11C]CNY-01]
VT in blocking scan compared to baseline (0.5 mg kg^−1 unlabeled CNY-01 10 min before the radiotracer, NHP): higher VT across the brain | VT, Logan graphical method [T* = 40 min] [1]: 29.37 ml/cm^3 | VT, Two tissue compartment model [2TCM] [1]: 25.84 ml/cm^3 | VT, Logan graphical method [T* = 40 min] (ACC, baseline): 13.32 mL cm^−3 | VT, One tissue compartment model [1TCM] (ACC, baseline): 9.76 mL cm^−3 | VT, Two tissue compartment model [2TCM] (ACC, baseline): 15.87 mL cm^−3 | VT, Logan graphical method [T* = 40 min] [2]: 34.47 ml/cm^3 | VT, Two tissue compartment model [2TCM] [2]: 29.18 ml/cm^3 | VT, Logan graphical method [T* = 40 min] (Amygdala, baseline): 14.75 mL cm^−3 | VT, One tissue compartment model [1TCM] (Amygdala, baseline): 10.83 mL cm^−3 | VT, Two tissue compartment model [2TCM] (Amygdala, baseline): 13.78 mL cm^−3 | VT, Logan graphical method [T* = 40 min] [3]: 21.96 ml/cm^3 | VT, Two tissue compartment model [2TCM] [3]: 18.25 ml/cm^3 | VT, Logan graphical method [T* = 40 min] (CBL, baseline): 11.65 mL cm^−3 | VT, One tissue compartment model [1TCM] (CBL, baseline): 8.96 mL cm^−3 | VT, Two tissue compartment model [2TCM] (CBL, baseline): 11.68 mL cm^−3 | VT, Logan graphical method [T* = 40 min] [4]: 28.10 ml/cm^3 | VT, Two tissue compartment model [2TCM] [4]: 24.46 ml/cm^3 | VT, Logan graphical method [T* = 40 min] (Caudate, baseline): 12.71 mL cm^−3 | VT, One tissue compartment model [1TCM] (Caudate, baseline): 9.58 mL cm^−3 | VT, Two tissue compartment model [2TCM] (Caudate, baseline): 14.24 mL cm^−3 | VT, Logan graphical method [T* = 40 min] [5]: 33.31 ml/cm^3 | VT, Two tissue compartment model [2TCM] [5]: 26.67 ml/cm^3 | VT, Logan graphical method [T* = 40 min] (Globus-pallidus, baseline): 15.11 mL cm^−3 | VT, One tissue compartment model [1TCM] (Globus-pallidus, baseline): 11.32 mL cm^−3 | VT, Two tissue compartment model [2TCM] (Globus-pallidus, baseline): 14.90 mL cm^−3 | VT, Logan graphical method [T* = 40 min] [6]: 24.15 ml/cm^3 | VT, Two tissue compartment model [2TCM] [6]: 18.46 ml/cm^3 | VT, Logan graphical method [T* = 40 min] (Hippocampus, baseline): 10.31 mL cm^−3 | VT, One tissue compartment model [1TCM] (Hippocampus, baseline): 8.04 mL cm^−3 | VT, Two tissue compartment model [2TCM] (Hippocampus, baseline): 10.36 mL cm^−3 | VT, Logan graphical method [T* = 40 min] [7]: 24.54 ml/cm^3 | VT, Two tissue compartment model [2TCM] [7]: 18.97 ml/cm^3 | VT, Logan graphical method [T* = 40 min] (Hypothalamus, baseline): 11.42 mL cm^−3 | VT, One tissue compartment model [1TCM] (Hypothalamus, baseline): 8.36 mL cm^−3 | VT, Two tissue compartment model [2TCM] (Hypothalamus, baseline): 10.60 mL cm^−3 | VT, Logan graphical method [T* = 40 min] [8]: 20.73 ml/cm^3 | VT, Two tissue compartment model [2TCM] [8]: 18.09 ml/cm^3 | VT, Logan graphical method [T* = 40 min] (Ifc, baseline): 9.62 mL cm^−3 | VT, One tissue compartment model [1TCM] (Ifc, baseline): 7.36 mL cm^−3 | VT, Two tissue compartment model [2TCM] (Ifc, baseline): 10.89 mL cm^−3 | VT, Logan graphical method [T* = 40 min] [9]: 31.86 ml/cm^3 | VT, Two tissue compartment model [2TCM] [9]: 26.77 ml/cm^3 | VT, Logan graphical method [T* = 40 min] (Insula, baseline): 14.70 mL cm^−3 | VT, One tissue compartment model [1TCM] (Insula, baseline): 11.17 mL cm^−3 | VT, Two tissue compartment model [2TCM] (Insula, baseline): 13.96 mL cm^−3 | VT, Logan graphical method [T* = 40 min] [10]: 34.11 ml/cm^3 | VT, Two tissue compartment model [2TCM] [10]: 25.70 ml/cm^3 | VT, Logan graphical method [T* = 40 min] (Midbrain, baseline): 13.39 mL cm^−3 | VT, One tissue compartment model [1TCM] (Midbrain, baseline): 11.03 mL cm^−3 | VT, Two tissue compartment model [2TCM] (Midbrain, baseline): 14.71 mL cm^−3 | VT, Logan graphical method [T* = 40 min] [11]: 21.53 ml/cm^3 | VT, Two tissue compartment model [2TCM] [11]: 16.66 ml/cm^3 | VT, Logan graphical method [T* = 40 min] (Motor, baseline): 9.39 mL cm^−3
